Measurements taken from PubChem BioAssay (NCI).
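Each compound was tested at five concentrations against cells in 96-well plates for 48 hours. Definition used: TGI = concentration required for complete inhibition of growth.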

Columns and labels:
Assay in all cases: growth of human tumour cells (NCI), 48 h
[1] = tested on: A498 renal
[2] = tested on: NCI/ADR-RES ovarian
[3] = tested on: MCF7 breast
[4] = tested on: NCI-H460 lung
[5] = tested on: SN12C renal
[6] = tested on: KM12 colon
[7] = tested on: EKVX NSCLC
[8] = tested on: NCI-H226 lung
[9] = tested on: UO-31 renal
[10] = tested on: RPMI-8226 leukemia
[11] = tested on: NCI-H522 lung
[12] = tested on: PC-3 prostate
[13] = tested on: UACC-257 melanoma
[14] = tested on: MDA-MB-231 breast
[15] = tested on: COLO 205 colon
[16] = tested on: OVCAR-5 ovarian
[17] = tested on: ACHN renal
[18] = tested on: HL-60(TB) leukemia
[19] = tested on: HCC-2998 colon
[20] = tested on: M14 melanoma
[21] = tested on: CAKI-1 renal
[22] = tested on: HOP-92 NSCLC
[23] = tested on: SK-MEL-28 melanoma
[24] = tested on: MDA-N
[25] = tested on: DU-145 prostate
[26] = tested on: SR leukemia
[27] = tested on: MALME-3M melanoma
[28] = tested on: TK-10 renal
[29] = tested on: SF-539 CNS
[30] = tested on: SNB-75 CNS
[31] = tested on: SW-620 colon
[32] = tested on: K-562 leukemia
[33] = tested on: SNB-19 CNS
[34] = tested on: NCI-H23 lung
[35] = tested on: HS 578T breast
[36] = tested on: SK-MEL-2 melanoma
[37] = tested on: UACC-62 melanoma
[38] = tested on: HT29 colon
[39] = tested on: OVCAR-3 ovarian
[40] = tested on: CCRF-CEM leukemia
[41] = tested on: U251 CNS
[42] = tested on: SK-OV-3 ovarian
[43] = tested on: SF-268 CNS
[44] = tested on: OVCAR-4 ovarian
[45] = tested on: MOLT-4 leukemia
[46] = tested on: MDA-MB-435
[47] = tested on: HOP-62 NSCLC
[48] = tested on: IGROV1 ovarian
[49] = tested on: SF-295 CNS
[50] = tested on: RXF 393 renal
[51] = tested on: HCT-15 colon
[52] = tested on: OVCAR-8 ovarian
[53] = tested on: BT-549 breast
[54] = tested on: SK-MEL-5 melanoma
[55] = tested on: HCT-116 colon
[56] = tested on: A549 NSCLC
[57] = tested on: T-47D breast
[58] = tested on: 786-0 renal

Nc1nc2c(c(-c3ccc(F)cc3)n1)COC/C2=C\c1ccc(F)cc1
TGI [1]: > 100 µM
TGI [2]: > 100 µM
TGI [3]: > 100 µM
TGI [4]: 34 µM
TGI [5]: > 100 µM
TGI [6]: 29 µM
TGI [7]: > 100 µM
TGI [8]: > 100 µM
TGI [9]: 50 µM
TGI [10]: > 100 µM
TGI [11]: 22.7 µM
TGI [12]: > 100 µM
TGI [13]: > 100 µM
TGI [14]: > 100 µM
TGI [15]: > 100 µM
TGI [16]: > 100 µM
TGI [17]: > 100 µM
TGI [18]: > 100 µM
TGI [19]: > 100 µM
TGI [20]: > 100 µM
TGI [21]: > 100 µM
TGI [22]: > 100 µM
TGI [23]: > 100 µM
TGI [24]: > 100 µM
TGI [25]: > 100 µM
TGI [26]: 43.2 µM
TGI [27]: 35.1 µM
TGI [28]: > 100 µM
TGI [29]: > 100 µM
TGI [30]: 83.1 µM
TGI [31]: > 100 µM
TGI [32]: > 100 µM
TGI [33]: > 100 µM
TGI [34]: > 100 µM
TGI [35]: > 100 µM
TGI [36]: > 100 µM
TGI [37]: > 100 µM
TGI [38]: 29.3 µM
TGI [39]: > 100 µM
TGI [40]: > 100 µM
TGI [41]: 31 µM
TGI [42]: > 100 µM
TGI [43]: > 100 µM
TGI [44]: > 100 µM
TGI [45]: > 100 µM
TGI [46]: > 100 µM
TGI [47]: > 100 µM
TGI [48]: > 100 µM
TGI [49]: > 100 µM
TGI [50]: > 100 µM
TGI [51]: > 100 µM
TGI [52]: > 100 µM
TGI [53]: > 100 µM
TGI [54]: > 100 µM

O=NNc1nc(-c2ccccn2)nc2ccccc12
TGI [1]: > 100 µM
TGI [2]: 63.5 µM
TGI [3]: > 100 µM
TGI [4]: > 100 µM
TGI [55]: 16.5 µM
TGI [5]: > 100 µM
TGI [56]: > 100 µM
TGI [6]: > 100 µM
TGI [7]: > 100 µM
TGI [8]: 62.5 µM
TGI [9]: > 100 µM
TGI [11]: 9.21 µM
TGI [12]: > 100 µM
TGI [13]: > 100 µM
TGI [14]: > 100 µM
TGI [15]: > 100 µM
TGI [57]: > 100 µM
TGI [16]: > 100 µM
TGI [17]: 42.5 µM
TGI [18]: > 100 µM
TGI [19]: 41 µM
TGI [20]: 22 µM
TGI [21]: > 100 µM
TGI [23]: > 100 µM
TGI [24]: > 100 µM
TGI [25]: > 100 µM
TGI [26]: > 100 µM
TGI [27]: 19.6 µM
TGI [28]: > 100 µM
TGI [29]: > 100 µM
TGI [30]: > 100 µM
TGI [31]: 27.7 µM
TGI [32]: > 100 µM
TGI [33]: > 100 µM
TGI [34]: > 100 µM
TGI [35]: > 100 µM
TGI [36]: 39.5 µM
TGI [37]: 65 µM
TGI [38]: 18.7 µM
TGI [39]: > 100 µM
TGI [40]: 15.4 µM
TGI [41]: > 100 µM
TGI [42]: > 100 µM
TGI [43]: > 100 µM
TGI [44]: > 100 µM
TGI [45]: > 100 µM
TGI [47]: 48.1 µM
TGI [48]: > 100 µM
TGI [49]: > 100 µM
TGI [58]: 39.9 µM
TGI [51]: 14.7 µM
TGI [52]: > 100 µM
TGI [53]: > 100 µM
TGI [54]: > 100 µM
